Test results taken from publication PMC12691742, “Anti-Cancer Outcome of Glucocorticoid Receptor Transrepression by Synephrine Derivatives in Hematological Malignancies” (International Journal of Molecular Sciences, 2025).

Key:
[1] = system: leukemia and lymphoma cells (Granta, K562); design: method as in PMID 39858397; conditions: cited from earlier work
[2] = system: K562 cells; assay: Cell cycle analysis by PI flow cytometry in K562 cells; format: cell-based; conditions: 24 h, 10S-E2 6.25 µM
Protocol: (§1) Figure 5 Pro-apoptotic and anti-cancer effects of synephrine derivatives in vitro and in vivo. (A) Effect of 4S-C2, 8S-E3, 10S-E2, and 13S-G2 on cell cycle progression in K562 and Granta cells after 24 h of incubation. The cells were fixed with ethanol, stained with propidium iodide, and analyzed using flow cytometry. Statistically significant difference compared to control: *—p < 0.05, **—p < 0.01 (n = 3). (B) In vivo anti-cancer activity was evaluated using the transplantable P388 murine lymphoma model. […] Tumor nodule size was measured twice a week using digital calipers. Statistically significant differences compared to the control: * p < 0.05, ** p < 0.01.
(§2) The distribution of cells by cell cycle phases was evaluated using propidium iodide (PI) staining, as described in [19]. […] After incubation, the cells were resuspended in 70% ethanol and fixed for 2h at 4 °C. Cells were then washed twice with cold PBS, pH 7.4, and stained with 500 µL of cold propidium iodide (PI) solution (50 µg/mL PI, 1% Triton X-100, and 100 µg/mL RNase A in PBS). The cell cycle distribution of cells in samples was analyzed using an FACSCalibur Flow Cytometer (“BD Biosciences”, San Jose, CA, USA). The experiments were performed in triplicate.

[3] = target: T1, GR (Homo sapiens, UniProt P04150); assay: GR radioligand binding assay, competition with [3H]Dex in K562 cells
T1 construct: endogenous in cells; host or cells: K562
T1 sequence (P04150 1-777): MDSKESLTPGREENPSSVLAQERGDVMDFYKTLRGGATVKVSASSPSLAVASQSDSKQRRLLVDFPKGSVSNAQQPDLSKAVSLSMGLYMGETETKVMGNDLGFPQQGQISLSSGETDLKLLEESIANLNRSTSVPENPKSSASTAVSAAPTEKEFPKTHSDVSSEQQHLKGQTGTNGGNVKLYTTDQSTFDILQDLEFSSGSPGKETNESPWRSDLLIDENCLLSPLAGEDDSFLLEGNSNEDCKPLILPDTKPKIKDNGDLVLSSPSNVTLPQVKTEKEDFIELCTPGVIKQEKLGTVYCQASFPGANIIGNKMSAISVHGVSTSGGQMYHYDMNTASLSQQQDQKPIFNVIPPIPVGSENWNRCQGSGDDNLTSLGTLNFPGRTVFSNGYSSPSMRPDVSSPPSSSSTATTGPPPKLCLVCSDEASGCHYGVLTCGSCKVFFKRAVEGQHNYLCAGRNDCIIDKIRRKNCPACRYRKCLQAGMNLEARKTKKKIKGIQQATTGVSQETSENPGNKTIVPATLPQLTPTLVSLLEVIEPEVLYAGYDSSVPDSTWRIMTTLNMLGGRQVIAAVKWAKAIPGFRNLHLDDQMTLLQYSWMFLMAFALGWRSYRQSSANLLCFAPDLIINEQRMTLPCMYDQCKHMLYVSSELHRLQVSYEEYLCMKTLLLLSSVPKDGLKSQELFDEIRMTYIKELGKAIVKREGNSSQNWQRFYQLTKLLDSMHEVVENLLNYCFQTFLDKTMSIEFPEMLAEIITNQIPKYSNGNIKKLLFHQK
Protocol: (A,B). […] The stability of the complex was simulated using molecular dynamics in the GROMACS program. (C) GR binding affinity was estimated using a radioligand binding assay. […] Cell lysate radioactivity was measured using a RackBeta 1215 LC (LKB Wallac, Turku, Finland) spectrometer for 4 min. […] The experiments were performed in triplicate (n = 3).
After 90 min of incubation, the cells were washed twice by centrifugation in cold serum-free medium (1500 rpm, 5 min). The cells were then lysed with RIPA buffer (50 mM Tris (pH 8.0), 150 mM NaCl, 1 mM ethylenediaminetetraacetic acid, 0.1% sodium dodecyl sulfate, 0.5% sodium deoxycholate, 1% triton-X100, 10% glycerin, and protease inhibitor) for 20 min. Lysates were transferred to scintillation liquid, and radioactivity was measured using a RackBeta 1215 LC spectrometer for 4 min. […] IC50 was determined using GraphPad Prism software, Ver.7.0. […] “Top” meant the highest value in dpm and was equal to 100%, while the “bottom” was considered as the lowest value (0%). […] The IC50 values for each ligand were determined by plotting these curves. The experiments were performed in triplicate.

[4] = system: Granta cells; assay: Cell cycle analysis by PI flow cytometry in Granta cells; format: cell-based; conditions: 24 h, 10S-E2 6.25 µM
Protocol: as §1, §2

**Q.** What does the source list for `CCCCCCNCC(O)c1ccc(OCc2ccccc2)cc1` (stereo not drawn) [10S-E2, 1-[4-(benzyloxy)phenyl]-2-(hexylamino)ethanol]?
**A.** IC50 ([1]; leukemia and lymphoma cells, read-out: cell viability IC50): 13 to 26 µM; concentrations of cytotoxic effects ([1]; mantle cell lymphoma Granta and chronic myeloleukemia K562 cells): 10 to 20 µM; induction of apoptosis [2]: did not induce apoptosis; number of cells in the G1 phase [2]: decrease in the number of cells in the G1 phase; number of replicating cells in the S phase [2]: increased the number of replicating cells in the S phase; IC50 [3]: 0.56 µM; number of cells in the G1 phase [4]: decrease in the number of cells in the G1 phase
